Key:
[1] = target: Gamma-aminobutyric acid receptor subunit alpha-1/alpha-2/beta-2/gamma-2 (Homo sapiens, UniProt P14867+P18507+P47869+P47870); assay type: protein-complex assay
[2] = target: Prostaglandin G/H synthase 1 (Homo sapiens, UniProt P23219); assay type: functional
Vasopressin V2 receptor = Vasopressin V2 receptor (Homo sapiens, UniProt P30518)
Androgen receptor [3] = target: T1, Androgen receptor (Rattus norvegicus, UniProt P15207); assay type: functional
T1 sequence (P15207 whole entry): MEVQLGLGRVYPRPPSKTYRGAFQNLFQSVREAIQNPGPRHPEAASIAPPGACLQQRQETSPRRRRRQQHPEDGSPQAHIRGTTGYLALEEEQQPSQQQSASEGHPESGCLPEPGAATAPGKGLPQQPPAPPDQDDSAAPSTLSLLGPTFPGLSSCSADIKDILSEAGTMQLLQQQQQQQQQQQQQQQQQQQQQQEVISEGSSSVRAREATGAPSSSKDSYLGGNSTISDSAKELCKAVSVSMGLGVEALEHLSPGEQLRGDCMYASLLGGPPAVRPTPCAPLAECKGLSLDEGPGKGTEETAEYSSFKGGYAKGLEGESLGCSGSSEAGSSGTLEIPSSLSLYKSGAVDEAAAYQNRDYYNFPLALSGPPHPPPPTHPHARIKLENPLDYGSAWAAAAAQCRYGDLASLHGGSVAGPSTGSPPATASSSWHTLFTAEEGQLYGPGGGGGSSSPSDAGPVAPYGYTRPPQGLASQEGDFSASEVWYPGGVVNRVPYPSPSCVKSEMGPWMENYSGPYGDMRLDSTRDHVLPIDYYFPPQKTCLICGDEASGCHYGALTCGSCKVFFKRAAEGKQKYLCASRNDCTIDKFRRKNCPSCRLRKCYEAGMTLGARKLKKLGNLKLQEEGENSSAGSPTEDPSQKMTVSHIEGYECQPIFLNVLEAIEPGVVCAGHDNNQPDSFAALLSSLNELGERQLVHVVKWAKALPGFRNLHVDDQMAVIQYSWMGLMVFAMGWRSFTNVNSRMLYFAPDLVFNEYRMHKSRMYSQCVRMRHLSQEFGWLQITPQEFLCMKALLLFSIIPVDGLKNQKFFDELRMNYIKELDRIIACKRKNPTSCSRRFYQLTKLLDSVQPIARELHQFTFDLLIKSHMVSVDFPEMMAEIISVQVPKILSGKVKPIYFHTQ

[4] = target: T2, 5-hydroxytryptamine receptor 1A (Homo sapiens, UniProt P08908); assay type: functional, cell-based
T2 sequence (P08908 whole entry): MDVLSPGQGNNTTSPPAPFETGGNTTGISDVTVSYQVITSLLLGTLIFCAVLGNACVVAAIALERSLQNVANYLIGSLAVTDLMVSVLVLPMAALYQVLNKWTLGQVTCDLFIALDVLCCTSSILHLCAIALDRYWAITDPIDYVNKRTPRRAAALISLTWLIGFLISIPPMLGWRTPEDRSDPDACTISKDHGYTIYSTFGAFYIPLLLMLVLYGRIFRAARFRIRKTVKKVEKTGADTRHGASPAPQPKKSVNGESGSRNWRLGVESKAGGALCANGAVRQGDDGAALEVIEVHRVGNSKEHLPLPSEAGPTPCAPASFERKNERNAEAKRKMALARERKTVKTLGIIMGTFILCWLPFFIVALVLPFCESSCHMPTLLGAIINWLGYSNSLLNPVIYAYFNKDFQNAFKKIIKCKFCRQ

Androgen receptor [5] = target: T1, Androgen receptor; assay type: functional; remark: listed apart in the source
[6] = target: T3, Muscarinic acetylcholine receptor M2 (Homo sapiens, UniProt P08172); assay type: functional, cell-based
T3 sequence (P08172 whole entry): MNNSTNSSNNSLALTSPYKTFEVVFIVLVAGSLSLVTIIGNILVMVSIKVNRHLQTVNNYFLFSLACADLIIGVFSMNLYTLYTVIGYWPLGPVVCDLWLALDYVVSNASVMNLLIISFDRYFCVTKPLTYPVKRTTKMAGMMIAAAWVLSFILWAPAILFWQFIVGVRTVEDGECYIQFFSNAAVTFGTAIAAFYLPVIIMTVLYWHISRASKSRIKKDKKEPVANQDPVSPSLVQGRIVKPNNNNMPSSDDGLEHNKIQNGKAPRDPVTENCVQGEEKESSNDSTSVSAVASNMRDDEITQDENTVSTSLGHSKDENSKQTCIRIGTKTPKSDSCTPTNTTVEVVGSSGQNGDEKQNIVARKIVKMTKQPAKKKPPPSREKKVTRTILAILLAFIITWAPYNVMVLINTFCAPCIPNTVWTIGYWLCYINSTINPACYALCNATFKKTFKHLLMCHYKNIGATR
Further: assay procedure not described here.

Prostaglandin G/H synthase 1, sequence (P23219 whole entry): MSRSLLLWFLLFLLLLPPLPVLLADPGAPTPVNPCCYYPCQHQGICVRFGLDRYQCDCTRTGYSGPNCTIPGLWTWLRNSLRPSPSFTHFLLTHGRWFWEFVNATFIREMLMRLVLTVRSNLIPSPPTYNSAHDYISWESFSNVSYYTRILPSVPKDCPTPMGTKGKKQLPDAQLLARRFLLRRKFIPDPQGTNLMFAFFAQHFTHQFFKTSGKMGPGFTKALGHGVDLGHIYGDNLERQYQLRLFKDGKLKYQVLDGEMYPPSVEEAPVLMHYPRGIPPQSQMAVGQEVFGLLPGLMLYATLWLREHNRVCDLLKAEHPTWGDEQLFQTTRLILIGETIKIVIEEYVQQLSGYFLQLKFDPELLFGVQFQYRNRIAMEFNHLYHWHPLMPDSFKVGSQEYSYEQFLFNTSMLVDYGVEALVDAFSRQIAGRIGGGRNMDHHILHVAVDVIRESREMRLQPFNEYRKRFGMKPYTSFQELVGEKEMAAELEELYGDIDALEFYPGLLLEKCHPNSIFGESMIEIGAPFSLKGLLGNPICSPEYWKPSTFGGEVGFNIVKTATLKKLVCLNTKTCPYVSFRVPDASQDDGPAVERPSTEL
Gamma-aminobutyric acid receptor subunit alpha-1/alpha-2/beta-2/gamma-2, sequence (P14867 whole entry): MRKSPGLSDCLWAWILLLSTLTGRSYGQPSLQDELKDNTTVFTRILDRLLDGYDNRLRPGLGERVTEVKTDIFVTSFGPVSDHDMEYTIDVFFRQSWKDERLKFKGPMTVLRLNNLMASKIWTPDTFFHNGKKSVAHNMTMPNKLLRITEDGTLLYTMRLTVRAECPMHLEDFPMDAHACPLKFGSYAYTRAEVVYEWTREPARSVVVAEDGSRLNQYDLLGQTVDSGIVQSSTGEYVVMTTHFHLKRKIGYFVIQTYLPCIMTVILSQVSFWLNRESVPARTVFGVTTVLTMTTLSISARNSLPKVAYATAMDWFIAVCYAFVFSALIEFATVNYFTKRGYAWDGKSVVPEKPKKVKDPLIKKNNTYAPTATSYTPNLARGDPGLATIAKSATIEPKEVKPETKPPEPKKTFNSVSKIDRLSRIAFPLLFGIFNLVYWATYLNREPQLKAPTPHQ
Gamma-aminobutyric acid receptor subunit alpha-1/alpha-2/beta-2/gamma-2, sequence (P47870 whole entry): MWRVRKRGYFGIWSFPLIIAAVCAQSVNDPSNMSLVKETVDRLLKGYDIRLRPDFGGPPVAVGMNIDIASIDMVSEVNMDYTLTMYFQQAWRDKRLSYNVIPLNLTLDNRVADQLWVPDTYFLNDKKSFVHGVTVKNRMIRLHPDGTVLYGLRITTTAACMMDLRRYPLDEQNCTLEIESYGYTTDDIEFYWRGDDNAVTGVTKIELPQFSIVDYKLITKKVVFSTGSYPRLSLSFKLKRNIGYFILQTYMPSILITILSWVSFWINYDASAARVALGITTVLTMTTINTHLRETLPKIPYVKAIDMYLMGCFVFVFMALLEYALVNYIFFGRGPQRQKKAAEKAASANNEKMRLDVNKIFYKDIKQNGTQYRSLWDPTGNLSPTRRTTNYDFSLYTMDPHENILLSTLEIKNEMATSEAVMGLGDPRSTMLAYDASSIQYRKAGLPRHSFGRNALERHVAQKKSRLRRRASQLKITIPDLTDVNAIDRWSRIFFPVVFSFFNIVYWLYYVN
Gamma-aminobutyric acid receptor subunit alpha-1/alpha-2/beta-2/gamma-2, sequence (P18507 whole entry): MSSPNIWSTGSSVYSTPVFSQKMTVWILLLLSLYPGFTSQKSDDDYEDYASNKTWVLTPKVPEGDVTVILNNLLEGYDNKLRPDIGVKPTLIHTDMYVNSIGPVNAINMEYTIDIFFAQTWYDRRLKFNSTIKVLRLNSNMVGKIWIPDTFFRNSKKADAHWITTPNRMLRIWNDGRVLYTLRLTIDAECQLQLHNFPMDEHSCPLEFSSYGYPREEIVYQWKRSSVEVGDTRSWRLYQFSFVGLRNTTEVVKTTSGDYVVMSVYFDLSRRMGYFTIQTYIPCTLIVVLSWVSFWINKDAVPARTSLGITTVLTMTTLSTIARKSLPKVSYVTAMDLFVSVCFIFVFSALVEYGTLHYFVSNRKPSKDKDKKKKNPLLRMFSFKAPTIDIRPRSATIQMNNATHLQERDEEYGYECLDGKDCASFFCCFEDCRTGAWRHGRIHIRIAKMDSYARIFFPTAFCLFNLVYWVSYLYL
Gamma-aminobutyric acid receptor subunit alpha-1/alpha-2/beta-2/gamma-2, sequence (P47869 whole entry): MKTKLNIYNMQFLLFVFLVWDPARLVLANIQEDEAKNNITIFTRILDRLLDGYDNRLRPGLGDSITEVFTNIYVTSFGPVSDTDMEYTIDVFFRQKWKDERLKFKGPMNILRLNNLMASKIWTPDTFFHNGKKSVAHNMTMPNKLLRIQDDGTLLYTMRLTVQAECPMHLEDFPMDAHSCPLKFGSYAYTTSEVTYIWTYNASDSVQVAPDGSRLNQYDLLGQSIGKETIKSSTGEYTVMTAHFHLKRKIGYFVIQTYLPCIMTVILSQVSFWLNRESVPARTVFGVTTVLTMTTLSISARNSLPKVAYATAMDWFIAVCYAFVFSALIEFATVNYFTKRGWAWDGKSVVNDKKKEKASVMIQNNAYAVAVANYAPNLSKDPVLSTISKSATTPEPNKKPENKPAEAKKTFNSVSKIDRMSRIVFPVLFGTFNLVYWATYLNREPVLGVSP

Molecule: CN(C)c1ccc(C(=C2C=CC(=[N+](C)C)C=C2)c2ccc(N(C)C)cc2)cc1 [GENTIAN VIOLET]
- AC50 [1]: > 3 µM
- AC50 [2]: 20.8 µM

Molecule: HYDROXOCOBALAMIN
- AC50 (Vasopressin V2 receptor): > 30 µM
- AC50 (Androgen receptor [3]): > 10 µM
- AC50 [4]: > 30 µM
- AC50 (Androgen receptor [5]): > 30 µM
- AC50 [6]: > 30 µM

Reference: ChEMBL document CHEMBL5291721, “A preclinical secondary pharmacology resource illuminates target-adverse drug reaction associations of marketed drugs” (Nat Commun, 2023)
